Laboratory results as given in paper PMC11487390, “Design and Synthesis of 1,3-Diarylpyrazoles and Investigation of Their Cytotoxicity and Antiparasitic Profile” (International Journal of Molecular Sciences, 2024).
pEC50: −log10 of the molar value. Where a name gives a salt, the structure may show the parent alone.

Key:
[1] = Cytotoxicity assay, MRC-5SV2 cells, resazurin, 3 days; format: cell-based; conditions: human, MRC-5 cells, highest concentration 64 µM
Protocol: The series of final products (13–69) was investigated in vitro on the human fetal lung fibroblast cell line MRC-5 (Table 1) to assess cytotoxicity toward normal (i.e., non-malignant) human cells. […] As explained earlier, these are important pathogens for humans or cattle (T. b. brucei) and a persistent need for new therapeutics exists for these parasites. As a part of the antiparasitic tests, cytotoxicity against primary mouse macrophages (PMMs) was also evaluated. These murine cells serve as host cells for parasites in the L. infantum assay. Therefore, the murine macrophage assay not only offers additional cytotoxicological insight but is also essential to interpreting the readout of the L. infantum assay.
(§1) The MRC-5SV2 human lung fibroblast cell line was cultured in MEM + Earle’s salts-medium, supplemented with 2 mM L-glutamine, 16.5 mM NaHCO3, and 5% inactivated fetal calf serum. For evaluating the antileishmanial activity, the L. infantum MHOM/MA(BE)/67 strain was used. This strain was maintained in a Golden hamster (Mesocricetus auratus). Amastigotes were collected from the spleen of an infected donor hamster using differential centrifugation. Primary peritoneal mouse macrophages were used as host cells and were collected 2 days after peritoneal stimulation with a 2% potato starch suspension. For the intracellular T. cruzi assays, the Tulahuen CL2 strain was used that expresses β-galactosidase. The strain was maintained in MRC-5SV2 cells in MEM medium. The T. b. brucei Squib 427 strain or T. b. rhodesiense STIB-900 strain was used for screening against the extracellular African trypanosomes. The strains were maintained in Hirumi’s Modified Iscove’s medium-9 (HMI-9), supplemented with 10% inactivated fetal calf serum. All cultures and assays were performed at 37 °C with 5% CO2.
(§2) Compound stock solutions were prepared in 100% DMSO at 20 mM. The compounds were serially pre-diluted by robotic plate production (4-fold) in DMSO followed by a further (intermediate) dilution in demineralized water to assure a final in-test DMSO concentration of <1%. Identical test plates containing 10 µL of the different concentrations of each compound were produced for the different assays. For the cytotoxicity assays, 5 concentrations per compound were tested (64–16–4–1–0.25 µM). For the parasitic assays, 10 concentrations per compound were tested, ranging from 64 µM to 0.2 nM.
Assays were performed in sterile 96-well microtiter plates, each well containing 10 µL of the watery compound dilutions together with 190 µL of MRC-5SV2 inoculum (1.5 × 10^5 cells/mL). Cell growth was compared to untreated control wells (100% cell growth) and medium-control wells (0% cell growth). After 3 days incubation, MRC-5 viability was assessed fluorimetrically after addition of 50 μL resazurin per well (final concentration of 10 µg mL^−1). After 4 h at 37 °C, fluorescence was measured (λex 550 nm, λem 590 nm). The results were expressed as % reduction in cell growth/viability compared to positive (100% growth–0% inhibition) and negative (0% growth–100% inhibition) control wells from which EC50 values (50% effective concentrations) were derived using an excel macro that calculates the interpolation of the concentrations corresponding to the flanking points, just above and just below 50% inhibition.

[2] = tested on: Trypanosoma cruzi Tulahuen CL2 strain; assay: Intracellular T. cruzi assay in MRC-5 cells (β-galactosidase/CPRG, 7 days); format: cell-based; conditions: Trypanosoma cruzi, TULAHUEN, MRC5, 168 h, intracellular in MRC-5 cells
Protocol: as §1, §2
MRC-5 cells were infected in 96-well plates using a harvested T. cruzi inoculum (4 × 10^3 MRC-5 cells/well + 4 × 10^4 parasites/well) and exposed to 10 µL of the compound dilutions (200 µL/well total volume). Parasite growth determined after 7 days of incubation and compared to untreated infected controls following the addition of the substrate CPRG (chlorophenolred ß-D-galactopyranoside): 50 µL/well of a stock solution containing 15.2 mg CPRG + 250 µL Nonidet in 100 mL PBS. The absorbance was measured spectrophotometrically at 540 nm after 4 h incubation at 37 °C and EC50 values were calculated.

[3] = tested on: L. infantum MHOM/MA(BE)/67 strain; assay: L. infantum intracellular amastigote assay in PMM (Giemsa, 5 days); format: cell-based, Leishmania infantum; conditions: Leishmania infantum, 120 h, amastigotes in PMM, 5 days; read-out: L. inf. (EC50)
Protocol: as §1, §2
Primary peritoneal mouse macrophages (PMMs) were prepared in RPMI-1640 medium, supplemented with 2 mM L-glutamine, 16.5 mM NaHCO3, and 5% inactivated fetal calf serum. The macrophages are infected after 48 h with spleen-derived L. infantum amastigotes (3 × 10^4 PMM + 4.5 × 10^5 parasites/well). The compounds were added after 2 h of infection. After 5 days incubation, parasite burdens (mean number of amastigotes/macrophage) were assessed microscopically after staining with a 10% Giemsa solution and EC50 values were calculated.

[4] = tested on: T. b. brucei Squib 427 strain; assay: T. b. brucei growth assay (resazurin, 3 days); format: cell-based, Trypanosoma brucei brucei; conditions: Trypanosoma brucei, 72 h, 3 days; read-out: T. b. bruc. (EC50)
Protocol: as §1, §2
(§3) Parasite suspensions (1.5 × 10^4 T. b. brucei/well or 4 × 10^3 T. b. rhodesiense/well) in HMI-9 medium were exposed in a total volume of 200 µL to 10 µL of the compound dilutions Parasite growth was assessed fluorimetrically after 3 days of incubation by the addition of 50 µL resazurin per well. After 6 h (T. b. rhodesiense) or 24 h (T. b. brucei) at 37 °C, fluorescence was measured (λex 550 nm, λem 590 nm), from which viability and EC50 values could be determined.

[5] = tested on: T. b. rhodesiense STIB-900 strain; assay: T. b. rhodesiense growth assay (resazurin, 3 days); format: cell-based, Trypanosoma brucei rhodesiense; conditions: Trypanosoma brucei, RHODESIENSE, 72 h, 3 days; read-out: T. b. rhod. (EC50)
Protocol: as §1, §2, §3

[6] = MRC-5SV2 human lung fibroblast cells

Compound | EC50 at 3 days [1, 6] [µM] | further results
c1ccc(-n2cc(CNCCc3ccncc3)c(-c3ccc4c(c3)OCO4)n2)cc1 [Compound 57, N-((3-(benzo[d] [1,3]dioxol-5-yl)-1-phenyl-1H-pyrazol-4-yl)methyl)-2-(pyridin-4-yl)ethan-1-amine hydrochloride] | 4 | 
Fc1ccc(COCc2cn(-c3ccccc3)nc2-c2ccc3c(c2)OCCO3)cc1 [Compound 45, 3-(2,3-dihydrobenzo[b][1,4]dioxin-6-yl)-4-(((4-fluorobenzyl)oxy)methyl)-1-phenyl-1H-pyrazole] | > 64 | pEC50 [2]: 5.26; pEC50 [3]: 4.65; pEC50 [4]: 4.57; pEC50 [5]: 5.15
Fc1ccc(-n2cc(COCc3cn(-c4ccccc4)nc3-c3ccc4c(c3)OCCO4)nn2)cc1 [Compound 47, 4-(((3-(2,3-dihydrobenzo[b][1,4]dioxin-6-yl)-1-phenyl-1H-pyrazol-4-yl)methoxy)methyl)-1-(4-fluorophenyl)-1H-1,2,3-triazole] | 51.5 | pEC50 [2]: 4.19; pEC50 [3]: < 4.19; pEC50 [4]: 4.25; pEC50 [5]: 5.25
c1ccc(-n2cc(CN3CCCC3)c(-c3ccc4c(c3)OCCO4)n2)cc1 [Compound 23, 3-(2,3-dihydrobenzo[b][1,4]dioxin-6-yl)-1-phenyl-4-(pyrrolidin-1-ylmethyl)-1H-pyrazole oxalate] | 18.2 | 
c1ccc(-n2cc(CNCCc3cccnc3)c(-c3ccc4c(c3)OCO4)n2)cc1 [Compound 58, N-((3-(benzo[d] [1,3]dioxol-5-yl)-1-phenyl-1H-pyrazol-4-yl)methyl)-2-(pyridin-3-yl)ethan-1-amine hydrochloride] | 19.4 | 
Fc1ccc(CNCc2cn(-c3ccccc3)nc2-c2ccc3c(c2)OCO3)cc1 [Compound 55, 1-(3-(benzo[d] [1,3]dioxol-5-yl)-1-phenyl-1H-pyrazol-4-yl)-N-(4-fluorobenzyl)methanamine hydrochloride] | 1 | 
Fc1ccc(Cc2cn(-c3ccccc3)nc2-c2ccc3c(c2)OCCO3)cc1 [Compound 51, 3-(2,3-dihydrobenzo[b][1,4]dioxin-6-yl)-4-(4-fluorobenzyl)-1-phenyl-1H-pyrazole] | > 64 | 
CN1CCN(CCNC(=O)c2cn(-c3ccccc3)nc2-c2ccc3c(c2)OCCO3)CC1 [Compound 43, 3-(2,3-dihydrobenzo[b][1,4]dioxin-6-yl)-N-(2-(4-methylpiperazin-1-yl)ethyl)-1-phenyl-1H-pyrazole-4-carboxamide] | 19 | 
c1ccc(CCNCc2cn(-c3ccccc3)nc2-c2ccc3c(c2)OCCO3)cc1 [Compound 17, N-((3-(2,3-dihydrobenzo[b][1,4]dioxin-6-yl)-1-phenyl-1H-pyrazol-4-yl)methyl)-2-phenylethan-1-amine hydrochloride] | 0.56 | 
c1ccc(CNCc2cn(-c3ccccc3)nc2-c2ccc3c(c2)OCCO3)cc1 [Compound 15, N-benzyl-1-(3-(2,3-dihydrobenzo[b][1,4]dioxin-6-yl)-1-phenyl-1H-pyrazol-4-yl)methanamine hydrochloride] | 5.42 | 
O=C(Nc1ccccc1)c1cn(-c2ccccc2)nc1-c1ccc2c(c1)OCCO2 [Compound 30, 3-(2,3-dihydrobenzo[b][1,4]dioxin-6-yl)-N,1-diphenyl-1H-pyrazole-4-carboxamide] | 9.19 | 
COc1ccc(-c2nn(-c3ccccc3)cc2CNCCc2cccnc2)cc1 [Compound 63, N-((3-(4-methoxyphenyl)-1-phenyl-1H-pyrazol-4-yl)methyl)-2-(pyridin-3-yl)ethan-1-amine hydrochloride] | 16.4 | 
CN1CCN(Cc2cn(-c3ccccc3)nc2-c2ccc3c(c2)OCCO3)CC1 [Compound 24, 1-((3-(2,3-dihydrobenzo[b][1,4]dioxin-6-yl)-1-phenyl-1H-pyrazol-4-yl)methyl)-4-methylpiperazine] | 18.2 | 
CN1CCN(CCNCc2cn(-c3ccccc3)nc2-c2ccc3c(c2)OCCO3)CC1 [Compound 27, N-((3-(2,3-dihydrobenzo[b][1,4]dioxin-6-yl)-1-phenyl-1H-pyrazol-4-yl)methyl)-2-(4-methylpiperazin-1-yl)ethan-1-amine trihydrochloride] | 6.94 | 
c1ccc(-n2cc(CNCCN3CCOCC3)c(-c3ccc4c(c3)OCO4)n2)cc1 [Compound 61, N-((3-(benzo[d] [1,3]dioxol-5-yl)-1-phenyl-1H-pyrazol-4-yl)methyl)-2-morpholinoethan-1-amine dihydrochloride] | 17.1 | 
COc1ccc(-c2nn(-c3ccccc3)cc2CNCCc2ccncc2)cc1 [Compound 62, N-((3-(4-methoxyphenyl)-1-phenyl-1H-pyrazol-4-yl)methyl)-2-(pyridin-4-yl)ethan-1-amine hydrochloride] | 9.66 | 
COc1ccc(-c2nn(-c3ccccc3)cc2CNCCc2ccc(F)cc2)cc1OC [Compound 67, N-((3-(3,4-dimethoxyphenyl)-1-phenyl-1H-pyrazol-4-yl)methyl)-2-(4-fluorophenyl)ethan-1-amine hydrochloride] | 1.22 | 
Fc1ccc(CNCc2cn(-c3ccccc3)nc2-c2ccc3c(c2)OCCO3)cc1 [Compound 16, 1-(3-(2,3-dihydrobenzo[b][1,4]dioxin-6-yl)-1-phenyl-1H-pyrazol-4-yl)-N-(4-fluorobenzyl)methanamine hydrochloride] | 6.65 | 
Fc1ccc(CCNCc2cn(-c3ccccc3)nc2-c2ccc3c(c2)OCO3)cc1 [Compound 56, N-((3-(benzo[d] [1,3]dioxol-5-yl)-1-phenyl-1H-pyrazol-4-yl)methyl)-2-(4-fluorophenyl)ethan-1-amine hydrochloride] |  | EC50 at 3 days [1]: 6.65 µM
c1ccc(-n2cc(CNCCc3cccnc3)c(-c3ccc4c(c3)OCCO4)n2)cc1 [Compound 20, N-((3-(2,3-dihydrobenzo[b][1,4]dioxin-6-yl)-1-phenyl-1H-pyrazol-4-yl)methyl)-2-(pyridin-3-yl)ethan-1-amine hydrochloride] | 8.95 | 
